Tested on: MOLT4 cells
Test: Protein degradation assay in MOLT4 cells (western blot)
Type: cell-based
Settings: MOLT4 cells incubated with various concentrations; the FIGURE
Experimental: MOLT4 cells and human platelets can be incubated with increasing concentrations of test compounds for 16 h. The cells can be harvested and lysed in RIPA lysis buffer supplemented with protease and phosphatase inhibitor cocktails. An equal amount of protein (20 μg/lane) can be resolved on a pre-cast 4-20% SDS-PAGE gel. Proteins can be subsequently transferred to NOVEX PVDF membranes by electrophoresis. The membranes can be blocked in blocking buffer (5% non-fat dry milk in TBS-T), and can be incubated with primary antibodies (at optimized concentrations) overnight at 4° C. After washing in TBS-T, the membranes can be incubated with an appropriate HRP-conjugated secondary antibody for 1 h at room temperature. After extensive washing, the proteins of interest can be detected with ECL western blotting detection reagents and recorded with autoradiography (Pierce Biotech, Rockford, IL, USA). The primary antibodies for Bcl-xL (Cat #2762), Bcl-2 (Cat #2872), Mcl-1 (Cat #5453) and β-actin (Cat #4970) can be purchased from Cell Signaling technology. The relative band intensity can be measured using ImageJ software and normalized to b-actin. The DC50 (concentration with 50% degradation) can be calculated using GraphPad Prism.

Row | Structure (SMILES) | protein degradation (western blot)
1 | Cc1c(-c2ccc(N3CCc4cccc(C(=O)Nc5nc6ccccc6s5)c4C3)nc2C(=O)NCCOCCOCCOCCNc2cccc3c2C(=O)N(C2CCC(=O)NC2=O)C3=O)cnn1CC12CC3CC(CC(C3)C1)C2 (stereo not shown) [degrader #8, 2-(5-(1-(adamantan-1-ylmethyl)-5-methyl-1H-pyrazol-4-yl)-6-((2-(2-(2-(2-((2-(2,6-dioxopiperidin-3-yl)-1,3-dioxoisoindolin-4-yl)amino)ethoxy)ethoxy)ethoxy)ethyl)carbamoyl)pyridin-2-yl)-N-(benzo[d]thiazol-2-yl)-1,2,3,4-tetrahydroisoquinoline-8-carboxamide] | protein degradation

Tested on: MOLT-4
Test: Cell viability assay (tetrazolium-based MTS) in MOLT4 cells
Settings: Homo sapiens, MOLT-4, MOLT4 acute lymphoblastic leukemia cells, 48 h incubation
Experimental: Cancer cells from acute lymphoblastic leukemia (MOLT4) were incubated with increasing concentrations of compounds of Examples 1-9 for 48 h. Cell viability was measured by tetrazolium-based MTS assay. 5×10^4 to 1×10^5 suspension cells or 3×10^3 to 5×10^3 adherent cells were seeded and treated in 96-well plates for 48 h. The EC50 values of individual agents were calculated with GraphPad Prism.

Row | EC50 [nM] | Structure (SMILES)
2 | < 10 | Cc1c(-c2ccc(N3CCc4cccc(C(=O)Nc5nc6ccccc6s5)c4C3)nc2C(=O)NCCOCCOCCOCCNc2cccc3c2C(=O)N(C2CCC(=O)NC2=O)C3=O)cnn1CC12CC3CC(CC(C3)C1)C2 (stereo not shown) [degrader #8, 2-(5-(1-(adamantan-1-ylmethyl)-5-methyl-1H-pyrazol-4-yl)-6-((2-(2-(2-(2-((2-(2,6-dioxopiperidin-3-yl)-1,3-dioxoisoindolin-4-yl)amino)ethoxy)ethoxy)ethoxy)ethyl)carbamoyl)pyridin-2-yl)-N-(benzo[d]thiazol-2-yl)-1,2,3,4-tetrahydroisoquinoline-8-carboxamide]

Same assay, conditions: MOLT4 acute lymphoblastic leukemia cells, 48 h incubation

Row | EC50 [nM] | Structure (SMILES)
3 | < 10 | Cc1c(-c2ccc(N3CCc4cccc(C(=O)Nc5nc6ccccc6s5)c4C3)nc2C(=O)O)cnn1CC12CC3CC(C1)CC(C(=O)NCCCCCCCCNc1cccc4c1C(=O)N(C1CCC(=O)NC1=O)C4=O)(C3)C2 (stereo not shown) [degrader #36, 6-(8-(benzo[d]thiazol-2-ylcarbamoyl)-3,4-dihydroisoquinolin-2(1H)-yl)-3-(1-(((1r,3r)-3-((8-((2-(2,6-dioxopiperidin-3-yl)-1,3-dioxoisoindolin-4-yl)amino)octyl)carbamoyl)adamantan-1-yl)methyl)-5-methyl-1H-pyrazol-4-yl)picolinic acid]
4 | 10 to 100 | Cc1c(-c2ccc(N3CCc4cccc(C(=O)Nc5nc6ccccc6s5)c4C3)nc2C(=O)O)cnn1CC12CC3CC(C1)CC(C(=O)NCCCCCCCCCCNc1cccc4c1C(=O)N(C1CCC(=O)NC1=O)C4=O)(C3)C2 (stereo not shown) [degrader #37, 6-(8-(benzo[d]thiazol-2-ylcarbamoyl)-3,4-dihydroisoquinolin-2(1H)-yl)-3-(1-(((1r,3r)-3-((10-((2-(2,6-dioxopiperidin-3-yl)-1,3-dioxoisoindolin-4-yl)amino)decyl)carbamoyl)adamantan-1-yl)methyl)-5-methyl-1H-pyrazol-4-yl)picolinic acid]
5 | 10 to 100 | Cc1c(-c2ccc(N3CCc4cccc(C(=O)Nc5nc6ccccc6s5)c4C3)nc2C(=O)O)cnn1CC12CC3CC(C1)CC(C(=O)NCCOCCNc1cccc4c1C(=O)N(C1CCC(=O)NC1=O)C4=O)(C3)C2 (stereo not shown) [degrader #39, 6-(8-(benzo[d]thiazol-2-ylcarbamoyl)-3,4-dihydroisoquinolin-2(1H)-yl)-3-(1-(((1r,3r)-3-((2-(2-((2-(2,6-dioxopiperidin-3-yl)-1,3-dioxoisoindolin-4-yl)amino)ethoxy)ethyl)carbamoyl)adamantan-1-yl)methyl)-5-methyl-1H-pyrazol-4-yl)picolinic acid]
6 | 10 to 100 | Cc1c(-c2ccc(N3CCc4cccc(C(=O)Nc5nc6ccccc6s5)c4C3)nc2C(=O)O)cnn1CC12CC3CC(C1)CC(C(=O)NCCOCCOCCOCCNc1cccc4c1C(=O)N(C1CCC(=O)NC1=O)C4=O)(C3)C2 (stereo not shown) [degrader #40, 6-(8-(benzo[d]thiazol-2-ylcarbamoyl)-3,4-dihydroisoquinolin-2(1H)-yl)-3-(1-(((1r,3r)-3-((2-(2-(2-(2-((2-(2,6-dioxopiperidin-3-yl)-1,3-dioxoisoindolin-4-yl)amino)ethoxy)ethoxy)ethoxy)ethyl)carbamoyl)adamantan-1-yl)methyl)-5-methyl-1H-pyrazol-4-yl)picolinic acid]

Continued, molecule first:

Row | Structure (SMILES) | EC50 [nM]
7 | Cc1c(-c2ccc(N3CCc4cccc(C(=O)Nc5nc6ccccc6s5)c4C3)nc2C(=O)O)cnn1CC12CC3CC(C1)CC(C(=O)NCCCCCCCCCCCCNc1cccc4c1C(=O)N(C1CCC(=O)NC1=O)C4=O)(C3)C2 (stereo not shown) [degrader #38, 6-(8-(benzo[d]thiazol-2-ylcarbamoyl)-3,4-dihydroisoquinolin-2(1H)-yl)-3-(1-(((1r,3r)-3-((12-((2-(2,6-dioxopiperidin-3-yl)-1,3-dioxoisoindolin-4-yl)amino)dodecyl)carbamoyl)adamantan-1-yl)methyl)-5-methyl-1H-pyrazol-4-yl)picolinic acid] | 10 to 100
8 | Cc1ncsc1-c1ccc([C@H](C)NC(=O)[C@@H]2C[C@@H](O)CN2C(=O)[C@@H](NC(=O)CCNC(=O)C23CC4CC(CC(Cn5ncc(-c6ccc(N7CCc8cccc(C(=O)Nc9nc%10ccccc%10s9)c8C7)nc6C(=O)O)c5C)(C4)C2)C3)C(C)(C)C)cc1 [degrader #41, 6-(8-(benzo[d]thiazol-2-ylcarbamoyl)-3,4-dihydroisoquinolin-2(1H)-yl)-3-(1-(((1S,3r)-3-((3-(((S)-1-((2S,4R)-4-hydroxy-2-(((S)-1-(4-(4-methylthiazol-5-yl)phenyl)ethyl)carbamoyl)pyrrolidin-1-yl)-3,3-dimethyl-1-oxobutan-2-yl)amino)-3-oxopropyl)carbamoyl)adamantan-1-yl)methyl)-5-methyl-1H-pyrazol-4-yl)picolinic acid] | > 1000
9 | Cc1ncsc1-c1ccc([C@H](C)NC(=O)[C@@H]2C[C@@H](O)CN2C(=O)[C@@H](NC(=O)CCCCNC(=O)C23CC4CC(CC(Cn5ncc(-c6ccc(N7CCc8cccc(C(=O)Nc9nc%10ccccc%10s9)c8C7)nc6C(=O)O)c5C)(C4)C2)C3)C(C)(C)C)cc1 [degrader #42, 6-(8-(benzo[d]thiazol-2-ylcarbamoyl)-3,4-dihydroisoquinolin-2(1H)-yl)-3-(1-(((1S,3r)-3-((5-(((S)-1-((2S,4R)-4-hydroxy-2-(((S)-1-(4-(4-methylthiazol-5-yl)phenyl)ethyl)carbamoyl)pyrrolidin-1-yl)-3,3-dimethyl-1-oxobutan-2-yl)amino)-5-oxopentyl)carbamoyl)adamantan-1-yl)methyl)-5-methyl-1H-pyrazol-4-yl)picolinic acid] | > 1000
10 | Cc1ncsc1-c1ccc([C@H](C)NC(=O)[C@@H]2C[C@@H](O)CN2C(=O)[C@@H](NC(=O)CCCCCCNC(=O)C23CC4CC(CC(Cn5ncc(-c6ccc(N7CCc8cccc(C(=O)Nc9nc%10ccccc%10s9)c8C7)nc6C(=O)O)c5C)(C4)C2)C3)C(C)(C)C)cc1 [degrader #43, 6-(8-(benzo[d]thiazol-2-ylcarbamoyl)-3,4-dihydroisoquinolin-2(1H)-yl)-3-(1-(((1S,3r)-3-((7-(((S)-1-((2S,4R)-4-hydroxy-2-(((S)-1-(4-(4-methylthiazol-5-yl)phenyl)ethyl)carbamoyl)pyrrolidin-1-yl)-3,3-dimethyl-1-oxobutan-2-yl)amino)-7-oxoheptyl)carbamoyl)adamantan-1-yl)methyl)-5-methyl-1H-pyrazol-4-yl)picolinic acid] | 100 to 1000

Reference: patent US12441722B2, “Therapeutic agents and methods of treatment” (University of Florida Research Foundation, Incorporated, priority 2020, dated 2025)
